The text below walks through data of US6545152B1, “R-isomers of nonnucleoside inhibitors” (Parker Hughes Institute, priority 2000, dated 2003).

In data set [1] the test system is HIV-1 strain A17 variant (Y181C plus K103N). The data set is described as follows: microbe, parasite or virus in culture. Type of data set: cell-based. The protocol:
(§1) Normal human peripheral blood mononuclear cells (PBMNC) from HIV-negative donors were cultured 72 hours in RPMI 1640 supplemented with 20%(v/v) heat-inactivated fetal bovine serum (FBS), 3% interleukin-2, 2 mM L-glutamine, 25 mM HEPES, 2 g/L NaHCO3, 50 μg/ml gentamicin, and 4 μg/ml phytohemagglutinin prior to exposure to HIV-1. The incubated cells were then exposed to HIV-1 at a multiplicity of infection (MOI) of 0.1 during a one-hour adsorption period at 37° C. in a humidified 5% CO2 atmosphere. Subsequently, infected cells were cultured in 96-well microtiter plates (100 μl/well; 2×10^6 cells/ml) in the presence of test compounds, including appropriate controls. Aliquots of culture supernatants were removed from the wells on the seventh day after infection for p24 antigen assays. The methods used in the P24 assay were as previously described in Uckun, et al., Antimicrobial Agents and Chemotherapy, 1998, 42, 383; Zarling, et al., Nature, 1990, 347, 92-95; Erice, et al., Antimicrob. Ag. Chemother., 1993, 37, 835.
(§2) The applied p24 enzyme immunoassay (EIA) was the unmodified kinetic assay commercially available from Coulter Corporation/Immunotech, Inc. (Westbrooke, Me.). In the assay, a murine monoclonal antibody against HIV core protein is coated onto microwell strips. Antigen (HIV core protein) present in the test culture supernatant samples binds the antibody and the bound antibody-antigen complex is quantitated. Percent viral inhibition was calculated by comparing the p24 values from the test substance-treated infected cells with p24 values from untreated infected cells (i.e., virus controls).

The subject of data set [2] is NNI-resistant HIV-1 strain A17 (Y181C). As to the kind of experiment: microbe, parasite or virus in culture. Type of data set: cell-based. The protocol: as §1, §2
The next data set relates to HIV-1 strain HTLVIIIB
The data set is described as follows: p24 antigen assay of HIV-1 replication in human PBMC. Type of data set: cell-based. The following applies: read-out: IC50 HTLVIIIB
As for the experimental part: The HIV-1 strain HTLVIIIB (kindly provided by Dr. Neal T. Wetherall, VIROMED Laboratories, Inc.), was propagated in CCRF-CEM cells, and used in in vitro assays of the anti-HIV-1 activity of the synthesized compounds of the invention. Cell-free supernatants of HTLVIIIB-infected CCRF-CEM cells were harvested, dispensed into 1 ml aliquots, and frozen at −70° C.
The incubated cells were then exposed to HIV-1 at a multiplicity of infection (MOI) of 0.1 during a one-hour adsorption period at 37° C. in a humidified 5% CO2 atmosphere. Subsequently, infected cells were cultured in 96-well microtiter plates (100 μl/well; 2×10^6 cells/ml) in the presence of test compounds, including appropriate controls. Aliquots of culture supernatants were removed from the wells on the seventh day after infection for p24 antigen assays. […] Ag.
as §2

The subject of data set [3] is multidrug resistant HIV-1 strain RT-MDR (V106A, 74V, 41L, 215Y). As to the kind of experiment: microbe, parasite or virus in culture. Type of data set: cell-based.
Data set [4] deals with T1, recombinant HIV-1 reverse transcriptase (rRT) (Human immunodeficiency virus type 1 group M subtype B, UniProt P04585).
T1 construct: recombinant HIV-1 reverse transcriptase (rRT)
The data set is described as follows: Cell-free RT inhibition assay (Quan-T-RT, scintillation proximity). Type of data set: biochemical. The protocol:
In addition, the activity of the test compounds to inhibit recombinant HIV-1 reverse transcriptase (rRT) activity was determined using the Quan-T-RT assay system (Amersham, Arlington Heights, Ill.), which utilizes the scintillation proximity assay principle. […] Data for both bioassays is reported as IC50 values.

Setting [5] is: Human immunodeficiency virus 1, 168 h, read-out: IC50 A17 (second column; A17 variant).
[6] abbreviates: Human immunodeficiency virus 1, read-out: IC50 A17 (second column; A17 variant).
Where [7] appears, read: Human immunodeficiency virus 1, read-out: IC50 A17.
[8] abbreviates: Human immunodeficiency virus 1, H9, read-out: IC50 RT-MDR.
[9] abbreviates: Human immunodeficiency virus 1, PBMC, human PBMC, p24.

pIC50: −log10 of the molar value. Where “and” joins values, the source holds several entries; their conditions need not be identical. Equal entries are not always repeated. Where two headings read alike, the source gives them in different places.

Regarding `S=C(NCCc1ccccn1)Nc1ccc(Br)cn1` [Trovirdine, reference compound], the negative-log IC50 (pIC50) in data set [1] (setting [5]) is under 4.00; in data set [1] (setting [6]), under 4.00; in data set [2] (setting [7]), 6.30; with HIV-1 strain HTLVIIIB (Human immunodeficiency virus 1, PBMC), 8.15; in data set [3] (setting [8]) it was 7.70.

Take `CC(C)Nc1cccnc1N1CCN(C(=O)c2cc3cc(NS(C)(=O)=O)ccc3[nH]2)CC1` [Delavirdine, reference compound]: the pIC50 in data set [1] (setting [5]) was under 4.00; in data set [1] (setting [6]) it was under 4.00; in data set [2] (setting [7]), 4.30; in the data set on HIV-1 strain HTLVIIIB (setting [9]) it was 8.05; in data set [3] (setting [8]) it was 6.40.

As for `C[C@@H](NC(=S)Nc1ccc(Br)cn1)c1ccccc1` [PHI-511^R], the melting point is 170 to 172 °C. Also, in data set [1] (setting [6]), the negative logarithm of the IC50 (pIC50) was 5.57. Also, in data set [2] (A17), the “times more active than HI-240” value worked out at 20 times, the “times more active than delavirdine” value is given as 5,000 times, the “times more active than nevirapine” value is 10,000 times and the “times more active than trovirdine” value came out at 50 times. Besides, the pIC50 in data set [2] (setting [7]) was 8.00. Further, the pIC50 in the data set with HIV-1 strain HTLVIIIB (human PBMC, p24, listed as PHI-511^S) is under 6.00. The pIC50 in the data set on HIV-1 strain HTLVIIIB (human PBMC, p24) is 8.00. In data set [3] (setting [8]), the pIC50 was 8.30. Moreover, in data set [3] (RT-MDR), the “times more active than delavirdine” value came out at 80 times, the “times more active than nevirapine” value was 1,000 times and the “times more active than trovirdine” value is listed as 4 times.

The compound `C[C@@H](NC(=S)Nc1ccc(Br)cn1)C1CCCCC1` [PHI-509^R, N-[1-(1-(1R)-Cyclohexylethyl)]-N-[2-(5-bromopyridyl)] thiourea] showed a melting point of 176 to 177 °C. In addition, the pIC50 in data set [1] (setting [5]) was 5.00. Also, the pIC50 in data set [2] (setting [7]) is 6.40. For the same compound, the pIC50 in the data set with HIV-1 strain HTLVIIIB (human PBMC, p24, listed as PHI-509^S) was under 6.00. The pIC50 in the data set on HIV-1 strain HTLVIIIB (human PBMC, p24) is 9.00. In addition, the pIC50 in data set [3] (setting [8]) was 6.70.

On to `C[C@H](NC(=S)Nc1ccccn1)C1CCCCC1` [PHI-542], for which the pIC50 in the data set with HIV-1 strain HTLVIIIB (setting [9]) is under 6.00; in data set [4], under 4.00.

As for `CC(NC(=S)Nc1ccc(Cl)cn1)C1CCCCC1` (stereo not shown) [PHI-510^R], the pIC50 in data set [1] (setting [6]) was 5.09; in data set [2] (setting [7]), 7.15; in data set [3] (setting [8]), 7.22.

`C[C@@H](NC(=S)Nc1nccs1)C1CCCCC1` [PHI-513^R, N-[1-(1-(1R)-Cyclobexyl)ethyl]-N′-[2-(thiazolyl)]thiourea] returned a melting point of 118 to 119 °C. Moreover, the pIC50 in data set [1] (setting [6]) is 5.24. Further, the pIC50 in data set [2] (setting [7]) is 6.05. In addition, the pIC50 in the data set with HIV-1 strain HTLVIIIB (human PBMC, p24, listed as PHI-513^S) was under 6.00. Also, the pIC50 with HIV-1 strain HTLVIIIB (human PBMC, p24) was 9.00. Besides, the pIC50 in data set [3] (setting [8]) was 5.25. In data set [4], the pIC50 was 4.89 and < 4.00.

`C[C@@H](NC(=S)Nc1ccccn1)C1CCCCC1` [PHI-543] showed a melting point of 125 to 127 °C. Moreover, the pIC50 in the data set with HIV-1 strain HTLVIIIB (setting [9]) was under 6.00. Besides, the pIC50 in data set [4] is under 4.00.

In turn, `C[C@@H](NC(=S)Nc1ccc(Cl)cn1)c1ccccc1` [PHI-512^R] had a melting point of 185 to 187.5 °C. Moreover, the pIC50 in data set [1] (setting [6]) is 4.99. Further, the negative logarithm of the IC50 (pIC50) in data set [2] (setting [7]) is 6.70. Moreover, the pIC50 in the data set on HIV-1 strain HTLVIIIB (setting [9]) was 8.00. Also, the pIC50 in data set [3] (setting [8]) is 8.00.

Turning to `Cc1ccnc2c1NC(=O)c1cccnc1N2C1CC1` [Nevirapine, reference compound], the pIC50 was under 4.00 in data set [1] (setting [6]), under 4.00 in data set [2] (setting [7]), 7.47 in the data set on HIV-1 strain HTLVIIIB (setting [9]) and 5.30 in data set [3] (setting [8]).

In the case of `Fc1ccccc1CCNC(=S)Nc1ccc(Br)cn1` [HI-240, reference compound], the pIC50 was 4.39 in data set [1] (Y181C plus K103N mutations, read-out: IC50 A17 (second column; A17 variant)); 6.70 in data set [2] (Y181C mutation, read-out: IC50 A17); over 9.00 in the data set with HIV-1 strain HTLVIIIB (human PBMC, p24); 8.30 in data set [3] (H9 cells, read-out: IC50 RT-MDR); 6.22 in data set [4].
